Assay results reported in US20140294729A1, “METHODS FOR IDENTIFICATION AND USE OF AGENTS TARGETING CANCER STEM CELLS” (Whitehead Institute for Biomedical Research, priority 2008, published 2014).
Entries after “also recorded” stand apart in the source; their conditions may differ.

Experiments:
Format in all cases: cell-based, human
HMLERshEcad cells [1] = experiment: Resistance to cytotoxic agents, transformed HMLERshCntrl vs HMLERshEcad dose response; conditions: FIG. 2A
Procedure: (§1) FIGS. 2A-2D depict that passage through the EMT leads to resistance to conventional chemotherapy drugs. FIG. 2A depicts dose response curves of transformed HMLERshCntrl (light gray line) and HMLERshEcad (dark gray line) cells treated with Paclitaxel and Doxorubicin. Dotted line denotes the 50% fraction surviving. […] FIG. 2B depicts the response of immortalized cells to chemotherapy drugs. HMLEshCntrl and HMLEshEcad cells were treated with the indicated drugs at three concentrations for 3 days and assayed for viability using the MTS assay. While Doxorubucin, Actinomycin D, Paclitaxel and Campthotecin are chemotherapeutic drugs, Staurosporine is a general kinase inhibitor that potently induce apoptosis. FIGS. 2C and 2D depict paclitaxel treatment leads to selective expansion of a minority cell population that has undergone an EMT. Control HMLE cells and GFP expressing HMLEshEcad cells were mixed at a ratio of 20:1 and seeded onto 6-well plates in triplicate. DMSO or Paclitaxel at 2.5 nm or 10 nm concentration was added onto the mixed cell populations 1 day after seeding followed by a 3 day incubation. The number of GFP-positive cells at the end of treatment were analyzed by flow cytometry. […] Note the increase in GFP positivity from 5% to 14% upon […] Paclitaxel treatment.
Since the HMLERsiEcad cells have a 100-fold increase in the frequency of cells capable of seeding tumors, we examined their response to two commonly used chemotherapy drugs, relative to HMLERsiGFP controls. We treated cultured HMLERsiGFP and HMLERsiEcad cells for a period of 3 days with either doxorubicin or paclitaxel, at various concentrations.
Doxorubicin, paclitaxel, actinomycin D, campthotecin and staurosporine were purchased from Sigma and dissolved in dimethyl sulfoxide (dmso). 5000 cells in 100 ul of medium were plated per well in 96-well plates. 24 hrs after seeding, compounds at the indicated concentration were added to wells (5 wells per each concentration). Dmso treatment was used as negative control. Cell viability was measured after 72 hrs using the CellTiter96 AQueous Assay (Promega) according to manufacturer's instructions. Dose response curves were generated with GraphPad Prism software (GraphPad Software, Inc.).

HMLEshEcad cells [2] = experiment: Co-culture of GFP-labeled HMLEshEcad cells and control HMLE cells (1:20), FACS for GFP positivity
Procedure: as §1
To further characterize the observed drug resistance, we paclitaxel-treated co-cultures of GFP-labeled HMLEshEcad cells and unlabeled controls cells (1:20 ratio).
This was observed independently of whether or not the cell lines had undergone neoplastic transformation. To determine the effect of conventional chemotherapy drugs on a mixture of epithelial cells that have and epithelial cells that have not undergone EMT, we co-mixed GFP-labeled HMLEsiEcad cells with unlabeled HMLEsiGFP cells at a ratio of 1:20, and treated the resulting co-culture with Paclitaxel. This non-stoichiometric mixture provided an internally controlled method to evaluate whether differential drug sensitivity was also manifest under conditions in which epithelial cells having undergone EMT were in the minority.
For the mix experiments, unlabelled and GFP-labeled cells were mixed at the indicated ratios and seeded onto 6-well plates. Triplicate wells were then treated with dmso or the compounds (paclitaxel, salinomycin, abamectin and blasticidin) for 48 hrs. The cells were washed with PBS, trypsinized and analyzed by FACS for GFP positivity.

HMLEshEcad cells [3] = experiment: Dose-response viability of HMLEshCntrl vs HMLEshEcad cells (validation of hits, 384-well, Cell-Titer-Glo); conditions: FIG. 4A; for selective toxicity towards HMLEshEcad cells relative to HMLEshCntrl cells: dose response on retesting
Procedure: (§2) FIG. 4A depicts dose response curves of HMLEshCntrl (A, light gray curve) and HMLEshEcad (A, dark gray curve) cells treated with the 8 compounds identified during the initial screen. 1000 cells of each line were seeded onto 384 well plates and treated with 8 different concentrations of compounds within a 2.5 log range. The cell viability after 3 day treatment was measured by Cell-Titer-Glo. […] FIG. 4B depicts dose response curves of HMLEshCntrl (curve with square data points) and HMLE-Twist (curve with triangular data points) cells treated with the same compounds as in (A). Note that selectivity of Salinomycin, Abamectin, Etoposide and Nigericin (Top, Left-to-Right) is retained even though a different method of EMT induction is used. […] 1 Day after seeding DMSO, Salinomycin (1.25 or 5 μM) or Abamectin (0.25 or 1.25 μM) was added at the indicated concentration. As the GFP vector contains a Blasticidin resistance gene, we used Blasticidin treatment as a positive control for the expansion of GFP-expressing control HMLE cells. After 3 day incubation the mix population of cells were analyzed by flow cytometry and the percentage of GFP-positive cells were determined. […] FIG. 4D depicts dose response curves of transformed HMLERshCntrl (light gray line) and HMLERshEcad (dark gray lines) cells treated with Salinomycin and Abamectin. Dotted line denotes the 50% fraction surviving.
We pursued 8 of the 32 compounds for further study and evaluated their effects across a range of doses.
For each of these compounds, we evaluated the effect on cell viability across a series of doses for sibling cell lines either induced into or not induced into EMT.
Information about the general automated HTS protocol is available online at broad.harvard.edu/chembio/index.html. The assay was initiated by plating 40 μL of medium containing 1000 cells/well into white 384-well opaque-bottom plates (Nunc, Rochester, N.Y.) using an automated plate filler (Bio-Tek μFiller; Winsooki, Vt.) and allowing the cells to adhere for 24 hours. 100 nL of compound stock solutions in dmso was transferred from stock plates into the 384-well assay plates using an automated pin-based compound transfer robot (CyBio CyBi-Well vario; Woburn, Mass.). For most compounds the final concentration in each well was calculated to be 10 uM.
The screen was performed in duplicate. For negative controls, entire dmso-treated control plates were employed, in addition to dmso-only control wells that were incorporated into each compound assay plate. The cells were assayed for luciferase activity with the addition 20 ul of CellTiter-Glo Luminescent Cell Viability Assay solution (Promega). The luminescent signal from each plate was detected using an automated plate reader (Perkin-Elmer Envision 1; Wellesley, Mass.).
Individual compounds were purchased from Sigma and dissolved in DMSO with the exception of nigericin which was dissolved in 100% ethanol. Activity of the compounds were quantified by generating dose-response curves for HMLE-shCntrl, HMLE-shEcad and HMLE-Twist under the same cell density and culture conditions described for the initial screen, using the 384-well plate based system.

HMLERshEcad cells [4] = experiment: Dose response of transformed HMLERshCntrl vs HMLERshEcad cells to screen hits; conditions: range of concentrations, FIG. 4D
Procedure: as §2

| SMILES | IC50 for HMLERsiEcad cells relative to IC50 for HMLERsiGFP cells (HMLERshEcad cells [1]; 3 days, various concentrations) | resistance of HMLERshEcad cells compared to HMLERshCntrl cells (HMLERshEcad cells [1]) | resistance of HMLERshEcad cells compared to HMLERshCntrl cells (HMLERshEcad cells [1]; listed as Paclitaxel) | increase in HMLEsiEcad cells having undergone EMT (HMLEshEcad cells [2]; 2.5 nM) | increase in HMLEsiEcad cells having undergone EMT relative to DMSO-treated co-cultures (HMLEshEcad cells [2]; 10 nM, after 3 days, 1:20 ratio) [fold] | increase in the proportion of HMLEshEcad cells compared to DMSO-treated co-cultures (HMLEshEcad cells [2]; 10 nM, treatment for 4 days, 1:20 ratio) [fold] | GFP positivity after treatment (from 5%) (HMLEshEcad cells [2]; 3 day incubation) [%] | IC50 fold lower for HMLEshEcad cells vs HMLEshCntrl cells (HMLEshEcad cells [3]; 3 day treatment, 8 concentrations) [fold] | selective toxicity towards HMLEshEcad cells relative to HMLEshCntrl cells (HMLEshEcad cells [3]) | selective toxicity towards HMLEshEcad cells relative to HMLEshCntrl cells (HMLEshEcad cells [3]; listed as Salinomycin) | selective toxicity for HMLERshEcad (MT tumorigenic) cells (HMLERshEcad cells [4]) | selective toxicity for HMLERshEcad (MT tumorigenic) cells (HMLERshEcad cells [4]; listed as Salinomycin) |
| --- | --- | --- | --- | --- | --- | --- | --- | --- | --- | --- | --- | --- |
| CC(=O)O[C@H]1C(=O)[C@@]2(C)[C@H]([C@H](OC(=O)c3ccccc3)[C@]3(O)C[C@H](OC(=O)[C@H](O)[C@@H](NC(=O)c4ccccc4)c4ccccc4)C(C)=C1C3(C)C)[C@]1(OC(C)=O)CO[C@@H]1C[C@@H]2O [paclitaxel] | significantly higher | significantly more resistant | more resistant | more modest increase | 4 | 4 | 14 | – | – | – | – | – |
| CC[C@@H](C(=O)[C@@H](C)[C@@H](O)[C@H](C)[C@@H]1O[C@@H]([C@@H](CC)C(=O)O)CC[C@@H]1C)[C@H]1O[C@]2(C=C[C@@H](O)[C@]3(CC[C@@](C)([C@H]4CC[C@](O)(CC)[C@H](C)O4)O3)O2)[C@H](C)C[C@@H]1C [salinomycin] | – | – | – | – | – | – | – | ~10 | moderate to strong selectivity; also recorded: strong specificity | selective toxicity | selectively toxic | remains |
